Results: patent US6767907B2, “4-aryl-1-(indanmethyl dihydrobenzofuranmethyl or dihydrobenzothiophenemethyl) piperidines tetrahydropyridines or piperazines” (H. Lundbeck A/S, priority 1994, dated 2004)
Where a name gives a salt, the structure may show the parent alone. Read-outs that look alike come from different tables or passages of the source.

What was measured:
5-HT2A receptors = biological target: T1, 5-HT2A receptors (Rattus norvegicus, UniProt P14842); assay: Inhibition of 3H-Ketanserin binding to 5-HT2 receptors in rat cortex in vitro
T1 construct: 5-HT2A receptors in membranes from rat is determined in vitro; from tissue; host or cells: rat cortex membranes
T1 sequence (P14842 whole entry): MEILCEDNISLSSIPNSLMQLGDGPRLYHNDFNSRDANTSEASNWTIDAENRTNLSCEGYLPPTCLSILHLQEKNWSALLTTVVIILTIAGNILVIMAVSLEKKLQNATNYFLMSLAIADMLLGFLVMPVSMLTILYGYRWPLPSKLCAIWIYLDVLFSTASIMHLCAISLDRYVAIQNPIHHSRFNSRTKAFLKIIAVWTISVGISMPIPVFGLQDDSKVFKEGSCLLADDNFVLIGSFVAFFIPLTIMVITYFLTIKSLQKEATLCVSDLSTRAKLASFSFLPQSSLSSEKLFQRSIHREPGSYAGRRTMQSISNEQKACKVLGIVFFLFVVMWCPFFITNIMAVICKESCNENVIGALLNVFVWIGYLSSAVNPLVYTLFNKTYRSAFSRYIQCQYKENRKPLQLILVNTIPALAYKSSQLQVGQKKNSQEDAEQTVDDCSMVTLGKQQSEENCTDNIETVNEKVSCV
Procedure: Inhibition of ^3H-Ketanserin Binding to 5-HT2 Receptors in Rat Cortex in vitro.
By this method the inhibition by drugs of the binding of ^3H-Ketanserin (0.5 nM) to 5-HT2A receptors in membranes from rat is determined in vitro .

5-HT1A receptors = biological target: T2, 5-HT1A receptors (Rattus norvegicus, UniProt P19327); assay: Inhibition of 3H-8-OH-DPAT binding to serotonin 5-HT1A receptors in rat brain in vitro; settings: 3H-8-OH-DPAT 1 nM; for IC50: membranes from rat brain minus cerebellum, read-out: 3H 8-OH DPAT (5-HT1A) binding, IC50
T2 construct: 5-HT1A receptors in membranes from rat brain minus cerebellum; from tissue; host or cells: rat brain minus cerebellum, membranes
T2 sequence (P19327 1-422): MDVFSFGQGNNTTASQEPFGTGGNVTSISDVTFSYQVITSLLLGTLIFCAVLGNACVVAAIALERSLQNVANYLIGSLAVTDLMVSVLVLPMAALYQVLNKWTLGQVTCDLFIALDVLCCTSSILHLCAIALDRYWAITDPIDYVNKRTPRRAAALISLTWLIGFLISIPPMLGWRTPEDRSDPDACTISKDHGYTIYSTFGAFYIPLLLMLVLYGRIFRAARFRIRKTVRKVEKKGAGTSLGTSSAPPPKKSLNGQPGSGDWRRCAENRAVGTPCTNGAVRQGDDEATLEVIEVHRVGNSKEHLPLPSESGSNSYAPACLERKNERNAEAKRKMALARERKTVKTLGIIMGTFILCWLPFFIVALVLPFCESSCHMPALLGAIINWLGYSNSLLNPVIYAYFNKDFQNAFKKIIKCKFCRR
Procedure: By this method the inhibition by drugs of the binding of the 5-HT1A agonist ^3H-8-OH-DPAT (1 nM) to 5-HT1A receptors in membranes from rat brain minus cerebellum is determined in vitro . Accordingly, this is a test for affinity for the 5-HT1A receptor. The test is performed as described by Hyttel et al., Drug. Dev. Res., 1988, 15, 389-404.

[1] = 3H-Ketanserin 0.5 nM, membranes from rat cortex, read-out: 3H Ketanserin (5-HT2A) binding, IC50

| melting point [°C] | IC50 (5-HT2A receptors; [1]) [nM] | IC50 (5-HT1A receptors) [nM] | Structure (SMILES) | further results |
| --- | --- | --- | --- | --- |
| 189 to 191 |  |  | CC(=O)Nc1ccc2c(c1)C(CN1CCC(n3ccc4cc(Cl)ccc43)CC1)CC2 (stereo not drawn) |  |
| 78 to 84 |  |  | Nc1ccc2c(c1)C(CN1CC=C(c3ccc(F)cc3)CC1)CC2 (stereo not drawn) |  |
| 191 to 193 |  |  | CCOC(=O)Nc1ccc2c(c1)C(CN1CCC(c3ccc(F)cc3)CC1)CC2 (stereo not drawn) (as salt: fumarate) [Compound 4l, 1-(6-Ethyloxycarbonylaminoindan-1-ylmethyl)-4-(4-fluorophenyl)piperidine] |  |
| 181 to 183 |  |  | CNC(=S)Nc1ccc2c(c1)C(CN1CCC(c3ccc(F)cc3)CC1)CC2 (stereo not drawn) (as salt: fumarate) [Compound 5c, 4-(4-Fluorophenyl)-1-(6-methylaminothiocarbonylaminoindan-1-ylmethyl)piperidine] |  |
| 198 to 201 |  |  | Nc1ccc2c(c1)C(CN1CCC(c3ccc(F)cc3)CC1)CC2 (stereo not drawn) (as salt: hydrochloride) [Compound 2a] |  |
| 195 to 203 |  |  | CC(=O)Nc1ccc2c(c1)C(CN1CCN(c3ccccc3Cl)CC1)CC2 (stereo not drawn) (as salt: hydrochloride) [Compound 4f, 1-(6-Acetylaminoindan-1-ylmethyl)-4-(2-chlorophenyl)piperazine] |  |
| 223 to 226 |  |  | CC(=O)Nc1ccc2c(c1)C(CN1CC=C(c3ccc(Cl)cc3)CC1)CC2 (stereo not drawn) (as salt: oxalate) |  |
| 163 to 165 |  |  | CC(=O)Nc1ccc2c(c1)C(CN1CCC(O)(c3ccc(Cl)c(C(F)(F)F)c3)CC1)CC2 (stereo not drawn) (as salt: oxalate) |  |
| 132 to 133 |  |  | CNC(=O)Nc1ccc2c(c1)C(CN1CCN(c3ccc4c(c3)OCO4)CC1)CC2 (stereo not drawn) (as salt: oxalate) [Compound 5d, 1-(6-Methylaminocarbonylaminoindan-1-ylmethyl)-4-(3,4-methylendioxyphenyl)piperazine] |  |
|  | 16 | 120 | CC(=O)Nc1ccc2c(c1)C(CN1CCC(c3ccc(F)cc3)CC1)CC2 (single isomer, unassigned; (+)) [Compound 14a, (+)-1-(6-Acetylaminoindan-1-ylmethyl)-4-(4-fluorophenyl)piperidine] |  |
|  | 2.5 | 480 | Nc1ccc2c(c1)C(CN1CCC(c3ccc(F)cc3)CC1)CC2 (stereo not drawn) [Compound 2a] |  |
| 98 to 109 |  |  | Nc1ccc2c(c1)C(CN1CCN(c3ccc(Cl)cc3)CC1)CC2 (stereo not drawn) [Compound 2e, 1-(6-Aminoindan-1-ylmethyl)-4-(4-chlorophenyl)piperazine] |  |
|  | 65 | 84 | CC(=O)Nc1ccc2c(c1)C(CN1CCN(c3ccccc3Cl)CC1)CC2 (stereo not drawn) [Compound 4f, 1-(6-Acetylaminoindan-1-ylmethyl)-4-(2-chlorophenyl)piperazine] |  |
|  | 55 |  | CCOC(=O)Nc1ccc2c(c1)C(CN1CCC(c3ccc(F)cc3)CC1)CC2 (stereo not drawn) [Compound 4l, 1-(6-Ethyloxycarbonylaminoindan-1-ylmethyl)-4-(4-fluorophenyl)piperidine] | inhibition at 0.1 µM (5-HT1A receptors; read-out: 3H 8-OH DPAT (5-HT1A) binding, % inhibition of binding at 100 nM, at 100 nM, rat brain membranes): 26% |
| 188 to 189 |  |  | CC(=O)Nc1ccc2c(c1)C(CN1CCN(c3ccc4c(c3)OCO4)CC1)CC2 (stereo not drawn) [Compound 4q, 1-(6-Acetylaminoindan-1-ylmethyl)-4-(3,4-methylenedioxyphenyl)piperazine] |  |
|  | 5.1 | 35 | CNC(=O)Nc1ccc2c(c1)C(CN1CCC(c3ccc(F)cc3)CC1)CC2 (stereo not drawn) [Compound 5a, 4-(4-Fluorophenyl)-1-(6-methylaminocarbonylaminoindan-1-ylmethyl)piperidine] |  |
|  | 3.9 | > 1000 | CNC(=S)Nc1ccc2c(c1)C(CN1CCC(c3ccc(F)cc3)CC1)CC2 (stereo not drawn) [Compound 5c, 4-(4-Fluorophenyl)-1-(6-methylaminothiocarbonylaminoindan-1-ylmethyl)piperidine] |  |
|  | 9.1 | 1200 | CN(C)C(=O)Nc1ccc2c(c1)C(CN1CCC(c3ccc(F)cc3)CC1)CC2 (stereo not drawn) [Compound 6a, 1-(6-Dimethylaminocarbonylaminoindan-1-ylmethyl)-4-(4-fluorophenyl)piperidine] |  |
|  | 2.6 | 13 | NC(=O)Nc1ccc2c(c1)C(CN1CCC(c3ccc(F)cc3)CC1)CC2 (stereo not drawn) [Compound 7a, 1-(6-Aminocarbonylaminoindan-1-ylmethyl)-4-(4-fluorophenyl)piperidine] |  |

| Structure (SMILES) | melting point [°C] | IC50 (5-HT2A receptors; [1]) [nM] | IC50 (5-HT1A receptors) [nM] | further results |
| --- | --- | --- | --- | --- |
| CC(=O)Nc1ccc2c(c1)C(CN1CC=C(c3c[nH]c4cc(Cl)ccc34)CC1)CC2 (stereo not drawn) (as salt: oxalate) (hydrate or solvate) [Compound 11e, 3-[1-(6-Acetylaminoindan-1-ylmethyl)-1,2,3,6-tetrahydropyridin-4-yl]-6-chloro-1H-indole] | 151 to 164 |  |  |  |
| COc1ccccc1N1CCN(CC2CCc3ccc(NC(C)=O)cc32)CC1 (stereo not drawn) (as salt: oxalate) [Compound 4g, 1-(6-Acetylaminoindan-1-ylmethyl)-4-(2-methoxyphenyl)piperazine] | 210 to 213 |  |  |  |
| CS(=O)(=O)Nc1ccc2c(c1)C(CN1CC=C(c3ccc(Cl)cc3)CC1)CC2 (stereo not drawn) (as salt: oxalate) [Compound 4m, 4-(4-Chlorophenyl)-1-(6-methansulphonylaminoindan-1-ylmethyl)-1,2,3,6-tetrahydropyperidine] | 176 to 178 |  |  |  |
| CC(=O)Nc1ccc2c(c1)C(CN1CC=C(c3c[nH]c4ccc(Cl)cc34)CC1)CS2 (stereo not drawn) (as salt: oxalate) [Compound 11b, 3-[1-(5-Acetylamino-2,3-dihydrobenzothiophen-3-ylmethyl)-1,2,3,6-tetrahydropyridin-4-yl]-5-chloro-1H-indole] | 214 to 216 |  |  |  |
| CC(=O)Nc1ccc2c(c1)C(CN1CCC(c3c[nH]c4ccc(F)cc34)CC1)CC2 (stereo not drawn) (as salt: oxalate) [Compound 11c, 3-[1-(6-Acetylaminoindan-1-ylmethyl)piperidin-4-yl]-5-fluoro-1H-indole] | 145 to 149 |  |  |  |
| CC(=O)Nc1ccc2c(c1)C(CN1CC=C(c3c[nH]c4ccc(F)cc34)CC1)CS2 (stereo not drawn) (as salt: oxalate) [Compound 11d, 3-[1-(5-Acetylamino-2,3-dihydrobenzothiophen-3-ylmethyl)-1,2,3,6-tetrahydropyridin-4-yl]-5-fluoro-1H-indole] | 155 to 165 |  |  |  |
| CC(=O)Nc1ccc2c(c1)C(CN1CCC(c3c[nH]c4cc(Cl)ccc34)CC1)CC2 (stereo not drawn) (as salt: oxalate) [Compound 11f, 3-[1-(6-Acetylaminoindan-1-ylmethyl)piperidin-4-yl]-6-chloro-1H-indole] | 122 to 130 |  |  |  |
| CC(=O)Nc1ccc2c(c1)C(CN1CC=C(c3c[nH]c4ccc(Cl)cc34)CC1)CC2 (stereo not drawn) (as salt: oxalate) [Compound 11g, 3-[1-(6-Acetylaminoindan-1-ylmethyl)-1,2,3,6-tetrahydropyridin-4-yl]-5-chloro-1H-indole] | 220 to 223 |  |  |  |
| CC(=O)Nc1ccc2c(c1)C(CN1CCC(c3cn(C)c4cc(Cl)ccc34)CC1)CC2 (stereo not drawn) (as salt: oxalate) [Compound 15b, 3-[1-(6-Acetylaminoindan-1-ylmethyl)piperidin-4-yl]-6-chloro-1-m ethyl-1H-indole] | 202 to 205 |  |  |  |
| COc1ccccc1N1CCN(CC2CCc3ccc(NC(C)=O)cc32)CC1 (stereo not drawn) [Compound 4g, 1-(6-Acetylaminoindan-1-ylmethyl)-4-(2-methoxyphenyl)piperazine] |  | 280 | 31 |  |
| CS(=O)(=O)Nc1ccc2c(c1)C(CN1CC=C(c3ccc(Cl)cc3)CC1)CC2 (stereo not drawn) [Compound 4m, 4-(4-Chlorophenyl)-1-(6-methansulphonylaminoindan-1-ylmethyl)-1,2,3,6-tetrahydropyperidine] |  |  | 120 | IC50 (5-HT2A receptors): 2.7 nM |
| CC(=O)Nc1ccc2c(c1)C(CN1CCC(c3c[nH]c4ccc(Cl)cc34)CC1)CS2 (stereo not drawn) [Compound 11a, 3-[1-(5-Acetylamino-2,3-dihydrobenzothiophen-3-ylmethyl)piperidin-4-yl]-5-chloro-1H-indole] |  | 42 | 28 |  |
| CC(=O)Nc1ccc2c(c1)C(CN1CC=C(c3c[nH]c4ccc(Cl)cc34)CC1)CS2 (stereo not drawn) [Compound 11b, 3-[1-(5-Acetylamino-2,3-dihydrobenzothiophen-3-ylmethyl)-1,2,3,6-tetrahydropyridin-4-yl]-5-chloro-1H-indole] |  | 44 | 21 |  |
| CC(=O)Nc1ccc2c(c1)C(CN1CCC(c3c[nH]c4ccc(F)cc34)CC1)CC2 (stereo not drawn) [Compound 11c, 3-[1-(6-Acetylaminoindan-1-ylmethyl)piperidin-4-yl]-5-fluoro-1H-indole] |  | 15 | 16 |  |
| CC(=O)Nc1ccc2c(c1)C(CN1CC=C(c3c[nH]c4ccc(F)cc34)CC1)CS2 (stereo not drawn) [Compound 11d, 3-[1-(5-Acetylamino-2,3-dihydrobenzothiophen-3-ylmethyl)-1,2,3,6-tetrahydropyridin-4-yl]-5-fluoro-1H-indole] |  | 15 | 29 |  |
